According to ChEMBL document CHEMBL3352029, “Ring fusion strategy for the synthesis of anthra[2,3-d]oxazole-2-thione-5,10-dione homologues as DNA topoisomerase inhibitors and as antitumor agents” (Eur J Med Chem, 2014):

Experiments:
[1] = system: SK-MEL-28; assay: Cytotoxicity against human SK-MEL-28 cells assessed as cell growth level at 10 uM after 48 hrs by sulforhodamine B assay; assay type: functional
[2] = system: NCI-H322M; assay: Cytotoxicity against human NCI-H322M cells assessed as cell growth level at 10 uM after 48 hrs by sulforhodamine B assay; assay type: functional
[3] = system: T47D; assay: Cytotoxicity against human T47D cells assessed as cell growth level at 10 uM after 48 hrs by sulforhodamine B assay; assay type: functional
[4] = system: NCI-H226; assay: Cytotoxicity against human NCI-H226 cells assessed as cell growth level at 10 uM after 48 hrs by sulforhodamine B assay; assay type: functional
[5] = system: SF-268; assay: Cytotoxicity against human SF268 cells assessed as cell growth level at 10 uM after 48 hrs by sulforhodamine B assay; assay type: functional
[6] = system: K562; assay: Cytotoxicity against human K562 cells assessed as cell growth level at 10 uM after 48 hrs by sulforhodamine B assay; assay type: functional
[7] = system: SK-MEL-5; assay: Cytotoxicity against human SK-MEL-5 cells assessed as cell growth level at 10 uM after 48 hrs by sulforhodamine B assay; assay type: functional
[8] = system: MDA-MB-468; assay: Cytotoxicity against human MDA-MB-468 cells assessed as cell growth level at 10 uM after 48 hrs by sulforhodamine B assay; assay type: functional
[9] = system: SNB-75; assay: Cytotoxicity against human SNB75 cells assessed as cell growth level at 10 uM after 48 hrs by sulforhodamine B assay; assay type: functional
[10] = system: BT-549; assay: Cytotoxicity against human BT549 cells assessed as cell growth level at 10 uM after 48 hrs by sulforhodamine B assay; assay type: functional
[11] = Cytotoxicity against human NCI-ADR-RES cells assessed as cell growth level at 10 uM after 48 hrs by sulforhodamine B assay; assay type: functional
[12] = Cytotoxicity against human SKOV3 cells assessed as cell growth level at 10 uM after 48 hrs by sulforhodamine B assay; assay type: functional, SK-OV-3
[13] = system: CAKI-1; assay: Cytotoxicity against human CAKI-1 cells assessed as cell growth level at 10 uM after 48 hrs by sulforhodamine B assay; assay type: functional
[14] = system: NCI-H23; assay: Cytotoxicity against human NCI-H23 cells assessed as cell growth level at 10 uM after 48 hrs by sulforhodamine B assay; assay type: functional
[15] = system: NCI-H522; assay: Cytotoxicity against human NCI-H522 cells assessed as cell growth level at 10 uM after 48 hrs by sulforhodamine B assay; assay type: functional
[16] = system: M14; assay: Cytotoxicity against human M14 cells assessed as cell growth level at 10 uM after 48 hrs by sulforhodamine B assay; assay type: functional
[17] = system: SK-MEL-2; assay: Cytotoxicity against human SK-MEL-2 cells assessed as cell growth level at 10 uM after 48 hrs by sulforhodamine B assay; assay type: functional
[18] = system: RXF 393; assay: Cytotoxicity against human RXF393 cells assessed as cell growth level at 10 uM after 48 hrs by sulforhodamine B assay; assay type: functional
[19] = system: HT-29; assay: Cytotoxicity against human HT-29 cells assessed as cell growth level at 10 uM after 48 hrs by sulforhodamine B assay; assay type: functional
[20] = system: SN12C; assay: Cytotoxicity against human SN12C cells assessed as cell growth level at 10 uM after 48 hrs by sulforhodamine B assay; assay type: functional
[21] = system: DU-145; assay: Cytotoxicity against human DU145 cells assessed as cell growth level at 10 uM after 48 hrs by sulforhodamine B assay; assay type: functional
[22] = system: MCF7; assay: Cytotoxicity against human MCF7 cells assessed as cell growth level at 10 uM after 48 hrs by sulforhodamine B assay; assay type: functional
[23] = system: NCI-H460; assay: Cytotoxicity against human NCI-H460 cells assessed as cell growth level at 10 uM after 48 hrs by sulforhodamine B assay; assay type: functional
[24] = system: ACHN; assay: Cytotoxicity against human ACHN cells assessed as cell growth level at 10 uM after 48 hrs by sulforhodamine B assay; assay type: functional
[25] = system: U-251; assay: Cytotoxicity against human U251 cells assessed as cell growth level at 10 uM after 48 hrs by sulforhodamine B assay; assay type: functional
[26] = system: RPMI-8226; assay: Cytotoxicity against human RPMI8226 cells assessed as cell growth level at 10 uM after 48 hrs by sulforhodamine B assay; assay type: functional
[27] = system: HOP-62; assay: Cytotoxicity against human HOP62 cells assessed as cell growth level at 10 uM after 48 hrs by sulforhodamine B assay; assay type: functional
[28] = system: HL-60(TB); assay: Cytotoxicity against human HL-60(TB) cells assessed as cell growth level at 10 uM after 48 hrs by sulforhodamine B assay; assay type: functional
[29] = system: TK-10; assay: Cytotoxicity against human TK10 cells assessed as cell growth level at 10 uM after 48 hrs by sulforhodamine B assay; assay type: functional
[30] = system: SF-539; assay: Cytotoxicity against human SF539 cells assessed as cell growth level at 10 uM after 48 hrs by sulforhodamine B assay; assay type: functional
[31] = system: HOP-92; assay: Cytotoxicity against human HOP92 cells assessed as cell growth level at 10 uM after 48 hrs by sulforhodamine B assay; assay type: functional
[32] = system: A549; assay: Cytotoxicity against human A549/ATCC cells assessed as cell growth level at 10 uM after 48 hrs by sulforhodamine B assay; assay type: functional
[33] = system: LOX IMVI; assay: Cytotoxicity against human LOXIMVI cells assessed as cell growth level at 10 uM after 48 hrs by sulforhodamine B assay; assay type: functional
[34] = Cytotoxicity against human OVCAR4 cells assessed as cell growth level at 10 uM after 48 hrs by sulforhodamine B assay; assay type: functional, OVCAR-4
[35] = system: IGROV-1; assay: Cytotoxicity against human IGROV1 cells assessed as cell growth level at 10 uM after 48 hrs by sulforhodamine B assay; assay type: functional
[36] = Cytotoxicity against human Hs 578T cells assessed as cell growth level at 10 uM after 48 hrs by sulforhodamine B assay; assay type: functional
[37] = system: MDA-MB-231; assay: Cytotoxicity against human MDA-MB-231 cells assessed as cell growth level at 10 uM after 48 hrs by sulforhodamine B assay; assay type: functional
[38] = system: SNB-19; assay: Cytotoxicity against human SNB19 cells assessed as cell growth level at 10 uM after 48 hrs by sulforhodamine B assay; assay type: functional
[39] = system: Malme-3M; assay: Cytotoxicity against human MALME-3M cells assessed as cell growth level at 10 uM after 48 hrs by sulforhodamine B assay; assay type: functional
[40] = system: HCC 2998; assay: Cytotoxicity against human HCC2998 cells assessed as cell growth level at 10 uM after 48 hrs by sulforhodamine B assay; assay type: functional
[41] = system: SF-295; assay: Cytotoxicity against human SF295 cells assessed as cell growth level at 10 uM after 48 hrs by sulforhodamine B assay; assay type: functional
[42] = system: MOLT-4; assay: Cytotoxicity against human MOLT4 cells assessed as cell growth level at 10 uM after 48 hrs by sulforhodamine B assay; assay type: functional
[43] = system: CCRF-CEM; assay: Cytotoxicity against human CCRF-CEM cells assessed as cell growth level at 10 uM after 48 hrs by sulforhodamine B assay; assay type: functional
[44] = Cytotoxicity against human HCT15 cells assessed as cell growth level at 10 uM after 48 hrs by sulforhodamine B assay; assay type: functional, HCT-15
[45] = system: COLO 205; assay: Cytotoxicity against human COLO205 cells assessed as cell growth level at 10 uM after 48 hrs by sulforhodamine B assay; assay type: functional
[46] = Cytotoxicity against human UACC257 cells assessed as cell growth level at 10 uM after 48 hrs by sulforhodamine B assay; assay type: functional, UACC-257

With `O=C1c2ccccc2C(=O)c2cc3oc(SCc4ccc(F)cc4)nc3cc21` the Activity [1] was 98.54%, the Activity [2] was 85.42% and the Activity [3] was 102.69%. The Activity [4] was 83.03%, the Activity [5] was 103.49% and the Activity [6] was 93.54%. It also gave an Activity [7] of 97.58%, an Activity [8] of 90.68% and an Activity [9] of 88.45%. The Activity [10] was 102.4%, the Activity [11] was 91.27% and the Activity [12] was 86.24%. It also gave an Activity [13] of 90.54%, an Activity [14] of 90.64% and an Activity [15] of 80.08%. The Activity [16] was 103.58%, the Activity [17] was 86.04% and the Activity [18] was 90.29%. For the same compound, the Activity [19] was 91.18%, the Activity [20] was 92.48% and the Activity [21] was 103.51%. It also gave an Activity [22] of 80.56%, an Activity [23] of 84.05% and an Activity [24] of 82.53%. It also gave an Activity [25] of 96.4%, an Activity [26] of 96.5% and an Activity [27] of 89.39%. It also gave an Activity [28] of 95.74%, an Activity [29] of 92.13% and an Activity [30] of 94.71%. It also gave an Activity [31] of 74.13%, an Activity [32] of 83.66% and an Activity [33] of 94.24%. The Activity [34] was 74.06%, the Activity [35] was 87.04% and the Activity [36] was 95.47%. The Activity [37] was 103.32%, the Activity [38] was 104.56% and the Activity [39] was 89.8%. The Activity [40] was 108.69%, the Activity [41] was 86.95% and the Activity [42] was 90.09%. For the same compound, the Activity [43] was 86.28%, the Activity [44] was 94.53% and the Activity [45] was 103.52%. It also gave an Activity [46] of 98.94%.
With `CCSc1nc2cc3c(cc2o1)C(=O)c1ccccc1C3=O` the Activity [1] was 92.36%, the Activity [2] was 77.88% and the Activity [3] was 96.02%. The Activity [4] was 82.45%, the Activity [5] was 102.22% and the Activity [6] was 96.26%. For the same compound, the Activity [7] was 100.35%, the Activity [8] was 88.73% and the Activity [9] was 96.42%. It also gave an Activity [10] of 114.59%, an Activity [11] of 95.82% and an Activity [12] of 90.67%. The Activity [13] was 93.49%, the Activity [14] was 90.76% and the Activity [15] was 80.08%. It also gave an Activity [16] of 98.8%, an Activity [17] of 96.71% and an Activity [18] of 101%. For the same compound, the Activity [19] was 89.08%, the Activity [20] was 98.57% and the Activity [21] was 107.71%. For the same compound, the Activity [22] was 81.27%, the Activity [23] was 100.33% and the Activity [24] was 90.86%. For the same compound, the Activity [25] was 94%, the Activity [26] was 91.04% and the Activity [27] was 75.13%. It also gave an Activity [28] of 96.05%, an Activity [29] of 100.92% and an Activity [30] of 94.61%. The Activity [31] was 72.67%, the Activity [32] was 96.49% and the Activity [33] was 91%. The Activity [34] was 94.25%, the Activity [35] was 79.05% and the Activity [36] was 81.15%. The Activity [37] was 90.66%, the Activity [38] was 99.9% and the Activity [39] was 91.75%. It also gave an Activity [40] of 101.65%, an Activity [41] of 92.06% and an Activity [42] of 101.76%. It also gave an Activity [43] of 90.48%, an Activity [44] of 96.65% and an Activity [45] of 98.08%. For the same compound, the Activity [46] was 92.45%.
With `CN(C)CCCSc1nc2cc3c(cc2o1)C(=O)c1ccccc1C3=O` the Activity [1] was 108.23%, the Activity [2] was 85.16% and the Activity [3] was 82.2%. It also gave an Activity [4] of 100.17%, an Activity [5] of 102.39% and an Activity [6] of 51.17%. It also gave an Activity [7] of 90.17%, an Activity [8] of 88.6% and an Activity [9] of 88.28%. For the same compound, the Activity [10] was 107.23%, the Activity [11] was 90.68% and the Activity [12] was 77.71%. It also gave an Activity [13] of 73.88%, an Activity [14] of 97.69% and an Activity [15] of 70.64%. It also gave an Activity [16] of 101.41%, an Activity [17] of 92.13% and an Activity [18] of 83.05%. For the same compound, the Activity [19] was 64.03%, the Activity [20] was 88.52% and the Activity [21] was 53.81%. The Activity [22] was 52.24%, the Activity [23] was 60.58% and the Activity [24] was 57.3%. The Activity [25] was 87.74%, the Activity [26] was 84.91% and the Activity [27] was 85.62%. It also gave an Activity [28] of 75.05%, an Activity [29] of 73.42% and an Activity [30] of 87.3%. The Activity [31] was 34.36%, the Activity [32] was 54.13% and the Activity [33] was 76.64%. The Activity [34] was 109.08%, the Activity [35] was 71.71% and the Activity [36] was 91.54%. It also gave an Activity [37] of 71.49%, an Activity [38] of 90.07% and an Activity [39] of 101.35%. For the same compound, the Activity [40] was 100.1%, the Activity [41] was 92.69% and the Activity [42] was 13.77%. It also gave an Activity [43] of 55.33%, an Activity [44] of 68.98% and an Activity [45] of 59.49%. The Activity [46] was 99.82%.
